Measurements reported in ChEMBL document CHEMBL3124773, “Stereoselective preparation of pyridoxal 1,2,3,4-tetrahydro-β-carboline derivatives and the influence of their absolute and relative configuration on the proliferation of the malaria parasite Plasmodium falciparum” (Bioorg Med Chem, 2014).

Tested on: Plasmodium falciparum
Experiment: Antiplasmodial activity against Plasmodium falciparum 3D7 infected in human erythrocytes after 48 hrs by [3H]hypoxanthine incorporation assay
Assay type: functional, organism-based

Row | SMILES | IC50 [µM]
1 | COC(=O)[C@@H]1Cc2c([nH]c3ccccc23)[C@H](c2c(CO)cnc(C)c2O)N1 | 91
2 | COC(=O)[C@@H]1Cc2c([nH]c3ccccc23)[C@@H](c2c(CO)cnc(C)c2O)N1 | 22
3 | COC(=O)[C@H]1Cc2c([nH]c3ccccc23)[C@@H](c2c(CO)cnc(C)c2O)N1 | 108

Now those with a lower IC50, led by results:

Row | IC50 [µM] | SMILES
4 | 14 | COC(=O)C1Cc2c([nH]c3ccccc23)C(c2c(CO)cnc(C)c2O)N1 (stereo not given)
5 | 8 | COC(=O)[C@H]1Cc2c([nH]c3ccccc23)[C@H](c2c(CO)cnc(C)c2O)N1
